Where two headings read alike, the source gives them in different places.
How the values were obtained:
[1] = target: TRKA kinase (Homo sapiens, UniProt P04629); experiment: Biochemical kinase analysis (HTRF), TRKA; conditions: 23° C., read-out: Kinase IC50 (nM) TRK A
Method: (§1) Inhibition of TRKA, TRKB, TRKC kinases can be measured by HTRF ([…]) method. The reaction was performed in a 384-well plate at 23° C. with a volume of 20 μL. TRKA TRKB or TRKC kinase were mixed with pre-formulated and diluted compounds of different concentrations for ten minutes in duplicate for each concentration, wherein 11 concentrations made with a 3-fold gradient dilution from the starting concentration of 300 nM were made and the final concentration of DMSO was 2%. The corresponding substrate and ATP were added thereto, and reacted at room temperature for 20 minutes (both a negative and a positive control were set: negative control is blank control, positive control is Entrectinib). After the reaction, detection reagent was added thereto (reagent in HTRF Kinase TK kit), and after incubation at room temperature for 30 minutes, detection was carried out by PerkinElmer Envision microplate reader for determining enzyme activity in the presence of the compounds of the present disclosure at various concentrations, and the inhibitory activity of different concentrations of compounds against enzyme activity was calculated. After that, in accordance with four-factors function and Graphpad 5.0 software, inhibitory activity on enzyme activity under different concentrations of compounds was fitted and IC50 values were calculated.

[2] = target: TRKB kinase (Homo sapiens, UniProt Q16620); experiment: Biochemical kinase analysis (HTRF), TRKB; conditions: 23° C., read-out: Kinase IC50 (nM) TRK B
Chain of TRKB kinase (Q16620 32-822): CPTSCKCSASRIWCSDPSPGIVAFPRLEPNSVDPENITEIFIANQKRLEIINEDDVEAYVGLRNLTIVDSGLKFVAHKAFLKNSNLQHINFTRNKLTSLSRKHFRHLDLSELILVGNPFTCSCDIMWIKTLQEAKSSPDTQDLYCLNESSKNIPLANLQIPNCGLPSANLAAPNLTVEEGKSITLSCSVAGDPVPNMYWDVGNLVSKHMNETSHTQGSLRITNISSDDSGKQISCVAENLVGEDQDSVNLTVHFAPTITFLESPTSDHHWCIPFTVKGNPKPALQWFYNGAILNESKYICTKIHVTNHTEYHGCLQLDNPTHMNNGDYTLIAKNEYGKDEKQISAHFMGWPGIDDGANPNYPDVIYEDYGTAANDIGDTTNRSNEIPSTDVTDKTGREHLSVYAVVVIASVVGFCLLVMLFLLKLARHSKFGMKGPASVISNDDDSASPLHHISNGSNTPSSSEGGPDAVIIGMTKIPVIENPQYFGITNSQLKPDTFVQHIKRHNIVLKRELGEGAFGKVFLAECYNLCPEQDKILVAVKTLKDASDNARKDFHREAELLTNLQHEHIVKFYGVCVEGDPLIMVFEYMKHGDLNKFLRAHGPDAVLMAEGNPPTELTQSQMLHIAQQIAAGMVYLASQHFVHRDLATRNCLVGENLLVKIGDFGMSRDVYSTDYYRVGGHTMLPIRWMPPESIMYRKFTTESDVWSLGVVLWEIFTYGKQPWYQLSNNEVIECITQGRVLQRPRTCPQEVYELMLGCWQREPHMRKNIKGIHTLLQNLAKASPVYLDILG
Method: as §1

[3] = target: TRKC kinase (Homo sapiens, UniProt Q16288); experiment: Biochemical kinase analysis (HTRF), TRKC; conditions: 23° C., read-out: Kinase IC50 (nM) TRK C
Chain of TRKC kinase (Q16288 32-839): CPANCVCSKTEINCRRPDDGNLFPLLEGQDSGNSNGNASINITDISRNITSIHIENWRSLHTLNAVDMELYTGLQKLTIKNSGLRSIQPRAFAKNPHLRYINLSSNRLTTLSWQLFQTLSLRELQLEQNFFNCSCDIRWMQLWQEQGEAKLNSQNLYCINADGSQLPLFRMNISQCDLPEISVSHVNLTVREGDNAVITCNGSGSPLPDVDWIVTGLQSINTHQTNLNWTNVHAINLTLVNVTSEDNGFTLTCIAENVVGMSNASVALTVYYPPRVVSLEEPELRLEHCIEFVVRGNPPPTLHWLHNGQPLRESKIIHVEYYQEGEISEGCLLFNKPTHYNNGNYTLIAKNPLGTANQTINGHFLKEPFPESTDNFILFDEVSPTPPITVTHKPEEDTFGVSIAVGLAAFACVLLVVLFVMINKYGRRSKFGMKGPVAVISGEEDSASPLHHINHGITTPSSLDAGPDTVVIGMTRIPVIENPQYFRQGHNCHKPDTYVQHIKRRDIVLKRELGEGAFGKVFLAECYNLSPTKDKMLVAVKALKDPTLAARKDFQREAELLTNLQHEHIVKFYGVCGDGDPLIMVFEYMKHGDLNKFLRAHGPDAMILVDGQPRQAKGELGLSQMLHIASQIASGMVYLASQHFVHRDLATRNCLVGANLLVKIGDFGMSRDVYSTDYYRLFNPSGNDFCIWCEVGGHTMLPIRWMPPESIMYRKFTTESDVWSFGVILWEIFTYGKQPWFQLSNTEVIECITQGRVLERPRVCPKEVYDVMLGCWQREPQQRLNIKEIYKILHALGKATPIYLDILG
Method: as §1

[4] = system: KM12 cell line; experiment: KM12 cell proliferation analysis (CellTiter-Glo); assay type: cell-based; conditions: Homo sapiens, 72 h
Method: The CGT method was used to detect the in vitro anti-proliferative activity of the compounds of the present disclosure on tumor cells cultured in vitro. The KM12 cell line was maintained in RPMI-1640 medium containing 10% fetal bovine serum and antibiotics, the cells in the logarithmic growth phase were harvested and planted in a 96-well plate. The plate was incubated in an incubator at 37° C., containing 5% carbon dioxide gas overnight. After the test compounds were dissolved in DMSO, a 3-fold concentration gradient dilution with 9 compound concentrations was made. Pre-prepared compounds of different concentrations were transferred to the cell plate in triplicate for each concentration, and continue culturing for 72 h. The final concentration of DMSO in the system was 0.1%, and the initial concentration of the test compound was 300 nM.
CellTiter-Glo reagent was added to the cell plate, and incubated at room temperature for 30 minutes to stabilize the optical signal. Detection was carried out by PerkinElmer Envision microplate reader for determining the inhibitory activity of the compound of the present disclosure at various concentrations on cell proliferation. The inhibitory activity of compounds at different concentrations on cell proliferation was fitted according to Graphpad 5.0 software, and IC50 values were calculated.

[5] = Pharmacokinetic experiment in rats; assay type: in vivo, Sprague-Dawley rats; design: Cl_pred (L/kg): unit not given here; conditions: rat; for AUC(0-t) / Cmax / Tmax / half-life / AUC(0-inf) / MRT inf / bioavailability: male, Sprague-Dawley, plasma; for AUC(0-inf): read-out: AUCINF_pred; for MRT inf: read-out: MRTINF_pred; for bioavailability: PO 10 mg/kg vs IV 3 mg/kg
Method: 6 male Sprague-Dawley rats (7-8 weeks old, and weighing approximately 210 g) were divided into 2 groups with 3 rats in each group. The rats were intravenously or orally administered a single dose of compounds (3 mg/kg intravenously, 10 mg/kg orally) to compare pharmacokinetic differences.
The rats were feeded on standard food and water. Fasting was started 16 hours before the test. The drug was dissolved in PEG400 and dimethyl sulfoxide. The blood samples were collected from eyelids at the time points of 0.083 hour, 0.25 hour, 0.5 hour, 1 hour, 2 hours, 4 hours, 6 hours, 8 hours, 12 hours, and 24 hours after administration.
Rats were briefly anesthetized after inhalation of diethyl ether and 300 μL of blood sample was collected from the eyelids into test tubes. There was 30 μL of 1% heparin salt solution in the test tube. Tubes were dried at 60° C. overnight before use. After the blood sample was collected at the last time point, the rats were sacrificed after ether anesthesia.
Immediately after the collection of the blood sample, the test tube was gently inverted at least 5 times to ensure sufficient mixing and then placed on ice. The blood sample was centrifuged at 5000 rpm at 4° C. for 5 minutes to separate the plasma from the red blood cells. 100 μL of plasma was aspirated into a clean plastic centrifuge tube with a pipette, marking with the name of the compound and time point. Plasma was stored at −80° C. prior to analysis. The concentration of the compound of the present disclosure in plasma was determined by LC-MS/MS. The pharmacokinetic parameters were calculated based on the blood concentration of the drug for each animal at different time points.

Chain of TRKA kinase (P04629 33-796): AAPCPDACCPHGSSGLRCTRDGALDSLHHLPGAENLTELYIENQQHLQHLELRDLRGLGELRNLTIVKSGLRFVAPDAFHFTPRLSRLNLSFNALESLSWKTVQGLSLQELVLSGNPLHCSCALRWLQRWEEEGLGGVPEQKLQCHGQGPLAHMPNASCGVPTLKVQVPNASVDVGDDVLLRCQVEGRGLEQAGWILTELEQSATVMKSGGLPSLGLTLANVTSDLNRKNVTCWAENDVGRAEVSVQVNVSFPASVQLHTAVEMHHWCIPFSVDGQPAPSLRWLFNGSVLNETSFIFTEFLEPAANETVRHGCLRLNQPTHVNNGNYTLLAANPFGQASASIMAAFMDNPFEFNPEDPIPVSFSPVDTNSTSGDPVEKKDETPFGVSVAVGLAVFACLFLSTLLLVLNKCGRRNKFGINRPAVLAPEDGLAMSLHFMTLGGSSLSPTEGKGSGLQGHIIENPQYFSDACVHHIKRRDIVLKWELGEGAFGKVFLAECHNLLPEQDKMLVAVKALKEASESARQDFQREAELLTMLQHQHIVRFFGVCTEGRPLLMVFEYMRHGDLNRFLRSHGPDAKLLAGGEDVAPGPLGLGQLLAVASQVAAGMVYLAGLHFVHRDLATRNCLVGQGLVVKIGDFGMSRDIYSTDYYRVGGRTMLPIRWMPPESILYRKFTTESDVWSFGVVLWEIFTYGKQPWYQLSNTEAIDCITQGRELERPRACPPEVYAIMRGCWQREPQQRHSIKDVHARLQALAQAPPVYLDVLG

| IC50 [1] | IC50 [2] | IC50 [3] | AUC(0-t) ([5]; IV 3 mg/kg) | Cmax ([5]; IV 3 mg/kg) | Tmax ([5]; IV 3 mg/kg) | half-life ([5]; IV 3 mg/kg) | AUC(0-inf) ([5]; IV 3 mg/kg) | MRT inf ([5]; IV 3 mg/kg) | AUC(0-t) ([5]; PO 10 mg/kg) | Cmax ([5]; PO 10 mg/kg) | Tmax ([5]; PO 10 mg/kg) | half-life ([5]; PO 10 mg/kg) | bioavailability [5] | AUC(0-inf) ([5]; PO 10 mg/kg) | MRT inf ([5]; PO 10 mg/kg) | Vz_pred ([5]; IV 3 mg/kg) | Vz_pred ([5]; PO 10 mg/kg) | Compound | IC50 [4] | also measured |
| --- | --- | --- | --- | --- | --- | --- | --- | --- | --- | --- | --- | --- | --- | --- | --- | --- | --- | --- | --- | --- |
| 0.17 nM | 0.1 nM | 0.1 nM | – | – | – | – | – | – | – | – | – | – | – | – | – | – | – | O=C1CCOc2ccc(F)cc2C2CCCN2c2ccn3ncc(c3n2)N1 (racemic) [Compound 9a, 9-fluoro-13-oxa-2,17,20,21,24-pentaazapentacyclo[16.5.2.0^2,6.0^7,12.0^21,25]pentacosane-1(24),7,9,11,18(25),19,22-heptaene-16-one] | 1.78 nM | – |
| 0.18 nM | 0.1 nM | 0.14 nM | 5010 ng·h/mL | 2160 ng/mL | 0.08 h | 2.2 h | 5030 ng·h/mL | 2.18 h | 11300 ng·h/mL | 1490 ng/mL | 1.58 h | 5.77 h | 67.9% | 11300 ng·h/mL | 4.9 h | 1.75 L/kg | 2.92 L/kg | O=C1CCOc2ccc(F)cc2[C@H]2CCCN2c2ccn3ncc(c3n2)N1 [Compound L-1-A, (6R)-9-fluoro-13-oxa-2,7,20,21,24-pentaazapentacyclo[16.5.2.0^26.0^7,12.0^21,25]pentacosane-1(24),7,9,11,18(25),19,22-heptaene-16-one] | 0.55 nM | Cl_pred (L/kg) ([5]; IV 3 mg/kg): 0.60; Cl_pred (L/kg) ([5]; PO 10 mg/kg): 0.92 |
| 21.1 nM | 15.5 nM | 14.2 nM | – | – | – | – | – | – | – | – | – | – | – | – | – | – | – | O=C1CCOc2ccc(F)cc2[C@@H]2CCCN2c2ccn3ncc(c3n2)N1 [Compound L-1-B, (6S)-9-fluoro-13-oxa-2,17,20,21,24-pentaazapentacyclo[16.5.2.0^2,6.0^7,12.0^21,25]pentacosane-1(24),7,9,11,18(25),19,22-heptaene-16-one] | 162 nM | – |
| 0.17 nM | 0.1 nM | 0.1 nM | 2480 ng·h/mL | 1620 ng/mL | 0.08 h | 2.41 h | 2480 ng·h/mL | 1.2 h | 4470 ng·h/mL | 1410 ng/mL | 0.5 h | 2.02 h | 54.2% | 4530 ng·h/mL | 2.8 h | 1.85 L/kg | 8.50 L/kg | C[C@H]1CC(=O)Nc2cnn3ccc(nc23)N2CCC[C@@H]2c2cc(F)ccc2O1 [Compound L-2-A, (6R,14S)-9-fluoro-14-methyl-13-oxa-2,17,20,21,24-pentaazapentacyclo[16.5.2.0^2,6.0^7,12.0^21,25]pentacosane-1(24),7,9,11,18(25),19,22-heptaene-16-one] | 0.25 nM | Cl_pred (L/kg) ([5]; IV 3 mg/kg): 1.23; Cl_pred (L/kg) ([5]; PO 10 mg/kg): 2.44 |
| 0.41 nM | 0.13 nM | 0.18 nM | – | – | – | – | – | – | – | – | – | – | – | – | – | – | – | C[C@H]1CC(=O)Nc2cnn3ccc(nc23)N2CCC[C@H]2c2cc(F)ccc2O1 [Compound L-2-B, (6S,14S)-9-fluoro-14-methyl-13-oxa-2,17,20,21,24-pentaazapentacyclo[16.5.2.0^2,6.0^7,12.0^21,25]pentacosane-1(24),7,9,11,18(25),19,22-heptaene-16-one] | 0.65 nM | – |
| > 100 nM | 70.8 nM | > 100 nM | – | – | – | – | – | – | – | – | – | – | – | – | – | – | – | CC1(C)COc2ccc(F)cc2[C@@H]2CCCN2c2ccn3ncc(c3n2)NC1=O [Compound L-3-B, (6S)-9-fluoro-15,15-dimethyl-13-oxa-2,17,20,21,24-pentaazapentacyclo[16.5.2.0^2,6.0^7,12.0^21,25]pentacosane-1(24),7,9,11,18(25),19,22-heptaene-16-one] | – | – |
| < 0.17 nM | < 0.17 nM | < 0.17 nM | 6240 ng·h/mL | 2120 ng/mL | 0.08 h | 9.05 h | 6350 ng·h/mL | 4.04 h | 11500 ng·h/mL | 1860 ng/mL | 1.67 h | 0.36 h | 55.5% | 13100 ng·h/mL | 6.23 h | 3.28 L/kg | 10.05 L/kg | C[C@H]1Nc2ccn3ncc(c3n2)NC(=O)CCOc2ccc(F)cc21 [Compound T-1, (13R)-11-fluoro-13-methyl-6,7,13,14-tetrahydro-1,15-ethenopyrazolo[4,3-f][1,4,8,10]benzoxatriazacyclotridecin-5(6H)-one] | 5.13 nM | Cl_pred (L/kg) ([5]; IV 3 mg/kg): 0.47; Cl_pred (L/kg) ([5]; PO 10 mg/kg): 0.77 |
| 0.36 nM | 0.09 nM | 0.09 nM | – | – | – | – | – | – | – | – | – | – | – | – | – | – | – | C[C@@H]1Nc2ccn3ncc(c3n2)NC(=O)C[C@H](C)Oc2ccc(F)cc21 [Compound T-2-B, (7S,13S)-11-fluoro-7,13-dimethyl-6,7,13,14-tetrahydro-1,15-ethenopyrazolo[4,3-f][1,4,8,10]benzoxatriazacyclotidecin-5(6H)-one] | 4.79 nM | – |
| 0.34 nM | 0.57 nM | 0.52 nM | – | – | – | – | – | – | – | – | – | – | – | – | – | – | – | C[C@H]1Nc2ccn3ncc(c3n2)NC(=O)C(C)(C)COc2ccc(F)cc21 [Compound T-3] | – | – |
| 4.91 nM | 5.31 nM | 5.41 nM | – | – | – | – | – | – | – | – | – | – | – | – | – | – | – | C[C@H]1Nc2ccn3ncc(c3n2)NC(=O)NCCOc2ccc(F)cc21 [Compound T-4, (14R)-12-fluoro-14-methyl-5,6,7,8,14,15-hexahydro-1,16-ethenopyrazolo[4,3-g][1,4,9,11]benzoxatetraazacyclotetradecin-5(6H)-one] | – | – |
| 93.9 nM | 225 nM | 258 nM | – | – | – | – | – | – | – | – | – | – | – | – | – | – | – | C[C@H]1Nc2ccn3ncc(c3n2)NC(=O)NCCCc2ccc(F)cc21 [Compound T-5, (14R)-12-fluoro-14-methyl-5,6,7,8,14,15-hexahydro-1,16-ethenopyrazolo[4,3-g][1,4,9,11]benzodioadiazatridecin-5(6H)-one] | – | – |
| – | – | – | 4670 ng·h/mL | 5010 ng/mL | 0.08 h | 1.45 h | 4670 ng·h/mL | 0.54 h | 4070 ng·h/mL | 1660 ng/mL | 0.33 h | 4.11 h | 26.2% | 4090 ng·h/mL | 2.31 h | 0.75 L/kg | 5.13 L/kg | C[C@@H]1CCc2ncc(F)cc2[C@H]2CCCN2c2ccn3ncc(c3n2)C(=O)N1 [LOXO-195, reference compound] | 2.73 nM | – |
| – | – | – | 3560 ng·h/mL | 2190 ng/mL | 0.08 h | 5.77 h | 3580 ng·h/mL | 1.76 h | 5470 ng·h/mL | 732 ng/mL | 1.67 h | 0.76 h | 46.1% | 5590 ng·h/mL | 5.42 h | 4.46 L/kg | 15.81 L/kg | C[C@H]1CNC(=O)c2cnn3ccc(nc23)N[C@H](C)c2cc(F)ccc2O1 [TPX-0005, reference compound] | 1.97 nM | – |

Source: patent publication US11358973B2, “Di(hetero)aryl macrocyclic compound for inhibiting protein kinase activity” (Shenzhen TargetRx, Inc., priority 2018, dated 2022)
